From patent US8778939B2, “Compounds” (Glaxo Group Limited, priority 2009, dated 2014)

Key:
Format in all cases: biochemical
[1] = target: T1, 6His-Tev-LRRK2 (1326-2527) (Homo sapiens, UniProt Q5S007); experiment: LRRK2 AlphaScreen protein substrate assay; conditions: GST-PS-Moesin (400-577) substrate, ATP at Km; read-out: pIC50 in the LRRK2 alphascreen protein substrate assay (converted)
T1 construct: A LRRK2 cDNA encoding residues 1326-2527 was received from Dundee University; made in house; host or cells: Spodoptera frugiperda (Sf9) insect cells, baculovirus
T1 sequence (Q5S007 1326-2527): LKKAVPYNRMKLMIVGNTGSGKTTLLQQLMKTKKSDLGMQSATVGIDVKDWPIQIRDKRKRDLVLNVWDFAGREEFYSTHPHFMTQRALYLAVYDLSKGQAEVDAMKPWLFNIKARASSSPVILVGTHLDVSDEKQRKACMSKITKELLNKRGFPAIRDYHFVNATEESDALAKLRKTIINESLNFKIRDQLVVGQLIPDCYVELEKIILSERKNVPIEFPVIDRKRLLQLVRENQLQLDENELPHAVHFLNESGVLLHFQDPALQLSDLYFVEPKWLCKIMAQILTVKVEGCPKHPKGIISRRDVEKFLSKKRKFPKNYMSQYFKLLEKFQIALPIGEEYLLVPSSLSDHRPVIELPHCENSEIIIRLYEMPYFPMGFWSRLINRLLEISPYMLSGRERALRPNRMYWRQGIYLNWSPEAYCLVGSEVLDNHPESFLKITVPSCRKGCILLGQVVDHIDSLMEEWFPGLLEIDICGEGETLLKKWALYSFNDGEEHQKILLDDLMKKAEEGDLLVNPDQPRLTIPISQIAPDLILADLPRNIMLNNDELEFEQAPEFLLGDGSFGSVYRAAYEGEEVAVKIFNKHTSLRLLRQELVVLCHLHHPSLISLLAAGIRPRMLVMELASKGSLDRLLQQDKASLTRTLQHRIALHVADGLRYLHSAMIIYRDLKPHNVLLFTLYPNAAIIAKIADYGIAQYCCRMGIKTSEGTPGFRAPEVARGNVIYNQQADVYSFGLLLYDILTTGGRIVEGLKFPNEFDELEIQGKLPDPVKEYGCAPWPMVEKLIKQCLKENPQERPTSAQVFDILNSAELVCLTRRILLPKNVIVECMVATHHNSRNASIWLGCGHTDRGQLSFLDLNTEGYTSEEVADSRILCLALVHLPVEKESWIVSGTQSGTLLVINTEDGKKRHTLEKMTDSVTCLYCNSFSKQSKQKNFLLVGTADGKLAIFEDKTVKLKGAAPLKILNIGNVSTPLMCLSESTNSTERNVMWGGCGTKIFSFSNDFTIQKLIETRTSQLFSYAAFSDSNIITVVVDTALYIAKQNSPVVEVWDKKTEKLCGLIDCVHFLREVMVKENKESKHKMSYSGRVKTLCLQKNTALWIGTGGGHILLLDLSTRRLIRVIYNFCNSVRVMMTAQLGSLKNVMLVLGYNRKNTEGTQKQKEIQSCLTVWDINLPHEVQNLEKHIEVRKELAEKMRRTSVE
Procedure: a) 100 nl of a 1:4 serial dilution of test compound with a top final assay concentration of 30 μM is added to certain wells in a low volume 384 well black plate. 100 nl of DMSO is used in certain wells as controls.
b) 3 μl enzyme solution (80 nM purified recombinant 6His-Tev-LRRK2 (1326-2527) in assay buffer: 50 mM Hepes (pH 7.2), 10 mM MgCl2, 150 mM NaCl, 5% glycerol, 0.0025% triton X-100 and 1 mM DTT) is added to certain wells.
Plates are then incubated for a further 1-2 hours at room temperature (incubation time varies depending upon rate and linearity of reaction with differing enzyme batches).
d) 6 μl detection solution (1:250 dilution of AlphaLisa Protein A Acceptor beads (PerkinElmer), 1:64 dilution of AlphaLisa Gluthathione Donor beads (PerkinElmer) and 1:600 dilution (dilution determined on a batch to batch basis) of Phospho-Ezrin (Thr567)/Radixin (Thr564)/Moesin (Thr558) Polyclonal Antibody (New England Biolabs) in a buffer: 50 mM Hepes (pH 7.5), 250 mM NaCl, 60 mM EDTA, 1% PEG and 0.01% Brij 35) is added to each well. Plates are then incubated for a further 2 hours at room temperature in the dark before reading on an EnVision™ plate reader with AlphaScreen HTS turbo option module and AlphaScreen settings. Data is analysed using ActivityBase software (IDBS).

[2] = target: T1, 6His-Tev-LRRK2 (1326-2527); experiment: LRRK2 peptide substrate assay; conditions: Biotin-LRRKtide peptide substrate, ATP at Km
Method in brief: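 Phosphorylation of biotin-LRRKtide/moesin substrate read by time-resolved FRET (Eu anti-rabbit IgG, streptavidin-APC, phospho-ERM Thr558 antibody; 665/620 nm). The 6His-Tev-LRRK2 (1326-2527) enzyme solution was 80 nM, in 50 mM Hepes pH 7.2 with 10 mM MgCl2 and 1 mM DTT. Incubation 1-2 h at room temperature; compounds tested up to 30 μM final, 1:4 dilutions.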

[3] = target: T1, 6His-Tev-LRRK2 (1326-2527); experiment: LRRK2 AlphaScreen desensitised protein substrate assay
Method in brief: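 AlphaScreen readout with phospho-Ezrin/Radixin/Moesin antibody after a 20 min room-temperature reaction at 2 mM ATP (substrate solution). Enzyme: 6His-Tev-LRRK2 (1326-2527) at 80 nM in enzyme solution, Hepes pH 7.2 buffer; test compound serially diluted 1:4 from 30 μM final.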

[4] = read-out: pIC50 in the LRRK2 peptide substrate assay (converted)
[5] = excess of ATP present (2 mM ATP), read-out: pIC50 in the LRRK2 alphascreen desensitised protein substrate assay (converted)
[6] = mean pIC50, read-out: LRRK2 peptide substrate assay (pIC50) (converted)
[7] = mean pIC50, GST-PS-Moesin (400-577) substrate, 2 mM ATP (excess of ATP present), read-out: LRRK2 alphascreen desensitised protein substrate assay (pIC50) (converted)

## CC(C)c1ccc(OCc2ccccc2)c(C(=O)Nc2cccnc2)c1 [Example 1, 5-(1-Methylethyl)-2-[(phenylmethyl)oxy]-N-3-pyridinylbenzamide]
[1]
  IC50: ≤ 0.1 µM
[2]; [4]
  IC50: ≤ 0.1 µM
[3]; [5]
  IC50: ≤ 20 µM

## O=C(Nc1cccnc1)c1cc(Br)ccc1OCc1ccccc1 [Example 2, 5-Bromo-2-[(phenylmethyl)oxy]-N-3-Pyridinylbenzamide]
[1]
  IC50: ≤ 0.1 µM
[2]; [4]
  IC50: ≤ 0.1 µM
[3]; [5]
  IC50: ≤ 20 µM

## N#Cc1ccc(OCc2ccccc2)c(C(=O)Nc2cccnc2)c1 [Example 8, 5-Cyano-2-[(phenylmethyl)oxy]-N-3-pyridinylbenzamide]
[1]
  IC50: ≤ 0.1 µM
[2]; [4]
  IC50: ≤ 0.1 µM
[3]; [5]
  IC50: ≤ 20 µM

## COc1cccc(COc2ccc(Br)cc2C(=O)Nc2cccnc2)c1 [Example 18, 5-Bromo-2-({[3-(methyloxy)phenyl]methyl}oxy)-N-3-pyridinylbenzamide]
[1]
  IC50: ≤ 7.94 µM
[3]; [5]
  IC50: > 25.1 µM

## CCc1cccc(NC(=O)c2cc(Br)ccc2OCc2ccccc2)c1 [Example 20, 5-Bromo-N-(3-ethylphenyl)-2-[(phenylmethyl)oxy]benzamide]
[1]
  IC50: ≤ 7.94 µM
[3]; [5]
  IC50: > 25.1 µM

## COc1ccccc1COc1ccc(Br)cc1C(=O)Nc1cccnc1 [Example 21, 5-Bromo-2-({[2-(methyloxy)phenyl]methyl}oxy)-N-3-pyridinylbenzamide]
[1]
  IC50: ≤ 7.94 µM
[3]; [5]
  IC50: ≤ 20 µM

## O=C(Nc1ccccn1)c1cc(Br)ccc1OCc1ccccc1 [Example 22, 5-Bromo-2-[(phenylmethyl)oxy]-N-2-pyridinylbenzamide]
[1]
  IC50: > 25.1 µM
[3]; [5]
  IC50: > 25.1 µM

## N#Cc1ccccc1COc1ccc(Br)cc1C(=O)Nc1cccnc1 [Example 23, 5-Bromo-2-{[(2-cyanophenyl)methyl]oxy}-N-3-pyridinylbenzamide]
[1]
  IC50: ≤ 7.94 µM
[3]; [5]
  IC50: ≤ 20 µM

## O=C(O)Cc1cccc(NC(=O)c2cc(Cl)ccc2OCc2ccccc2)c1 [Example 25, {3-[({5-Chloro-2-[(phenylmethyl)oxy]phenyl}carbonyl)amino]phenyl}acetic acid]
[1]
  IC50: ≤ 7.94 µM

## CNC(=O)c1cccc(NC(=O)c2cc(Br)ccc2OCc2ccccc2)c1 [Example 27, 5-Bromo-N-{3-[(methylamino)carbonyl]phenyl}-2-[(phenylmethyl)oxy]benzamide]
[1]
  IC50: ≤ 7.94 µM
[3]; [5]
  IC50: > 25.1 µM

## O=C(Nc1cccnc1)c1cc(CN2CCOCC2)ccc1OCc1ccc(F)cc1 [Example 117, 2-{[(4-Fluorophenyl)methyl]oxy}-5-(4-morpholinylmethyl)-N-3-pyridinylbenzamide]
[2]; [4]
  IC50: ≤ 0.1 µM
[2]; [6]
  IC50: 0.02 µM
[3]; [5]
  IC50: ≤ 20 µM
[3]; [7]
  IC50: 0.794 µM

## COC(=O)NCc1ccc(OCc2ccc(F)cc2)c(C(=O)Nc2cccnc2)c1 [Example 118, Methyl ({4-{[(4-fluorophenyl)methyl]oxy}-3-[(3-pyridinylamino)carbonyl]phenyl}methyl)carbamate]
[2]; [4]
  IC50: ≤ 0.01 µM
[3]; [5]
  IC50: ≤ 20 µM

## O=C(Nc1ccnnc1)c1cc(CN2CCOCC2)ccc1OCc1ccc(F)cc1 [Example 119, 2-{[(4-Fluorophenyl)methyl]oxy}-5-(4-morpholinylmethyl)-N-4-pyridazinyl benzamide]
[2]; [4]
  IC50: ≤ 0.1 µM
[3]; [5]
  IC50: ≤ 20 µM

## Nc1cc(-c2ccc(OCc3ccccc3)c(C(=O)Nc3cccnc3)c2)ccn1 [Example 122, 5-(2-Amino-4-pyridinyl)-2-[(phenylmethyl)oxy]-N-3-pyridinylbenzamide]
[2]; [4]
  IC50: ≤ 0.1 µM
[3]; [5]
  IC50: ≤ 20 µM

## O=C(Nc1cccnc1F)c1cc(C(=O)N2CCOCC2)ccc1OCc1ccc(F)cc1 [Example 123, 2-{[(4-Fluorophenyl)methyl]oxy}-N-(2-fluoro-3-pyridinyl)-5-(4-morpholinylcarbonyl)benzamide]
[2]; [4]
  IC50: ≤ 0.1 µM
[2]; [6]
  IC50: 0.0398 µM
[3]; [5]
  IC50: ≤ 20 µM
[3]; [7]
  IC50: 2.51 µM

## O=C(Nc1cccnc1F)c1cc(C(=O)N2CCOCC2)ccc1OCc1ccc(F)cc1F [Example 125, 2-{[(2,4-Difluorophenyl)methyl]oxy)-N-(2-fluoro-3-pyridinyl)-5-(4-morpholinylcarbonyl)benzamide]
[2]; [4]
  IC50: ≤ 0.1 µM
[3]; [5]
  IC50: ≤ 20 µM

## O=C(Nc1cccnc1)c1cc(C(=O)N2CCOCC2)ccc1OCc1ccc(F)cc1 [Example 127, 2-{[(4-Fluorophenyl)methyl]oxy}-5-(4-morpholinylcarbonyl)-N-3-pyridinylbenzamide]
[2]; [4]
  IC50: ≤ 0.1 µM
[2]; [6]
  IC50: 0.0631 µM
[3]; [5]
  IC50: ≤ 20 µM
[3]; [7]
  IC50: 10 µM

## O=C(Nc1cccnc1)c1cc(-c2cnn(CCN3CCOCC3)c2)ccc1OCc1ccc(F)cc1 [Example 128, 2-{[(4-Fluorophenyl)methyl]oxy}-5-{1-[2-(4-morpholinyl)ethyl]-1H-pyrazol-4-yl}-N-3-pyridinylbenzamide]
[2]; [4]
  IC50: ≤ 0.01 µM
[2]; [6]
  IC50: 0.00794 µM
[3]; [5]
  IC50: ≤ 20 µM
[3]; [7]
  IC50: 0.126 µM

## Cc1nocc1NC(=O)c1cc(-c2cnn(CCN3CCOCC3)c2)ccc1OCc1ccc(F)cc1 [Example 129, 2-([(4-Fluorophenyl)methyl]oxy)-N-(3-methyl-4-isoxazolyl)-5-{1-[2-(4-morpholinyl)ethyl]-1H-pyrazol-4-yl}benzamide]
[2]; [4]
  IC50: ≤ 0.1 µM
[2]; [6]
  IC50: 0.0126 µM
[3]; [5]
  IC50: > 25.1 µM
[3]; [7]
  IC50: > 25.1 µM

## COCCn1cc(-c2ccc(OCc3ccc(F)cc3)c(C(=O)Nc3cccnc3)c2)cn1 [Example 130, 2-{[(4-Fluorophenyl)methyl]oxy}-5-{1-[2-(methyloxy)ethyl]-1H-pyrazol-4-yl}-N-3-pyridinylbenzamide]
[2]; [4]
  IC50: ≤ 0.01 µM
[2]; [6]
  IC50: 0.00316 µM
[3]; [5]
  IC50: ≤ 20 µM
[3]; [7]
  IC50: 0.0316 µM

## Cn1cc(-c2ccc(OCc3ccc(F)cc3)c(C(=O)Nc3cnoc3)c2)cn1 [Example 134, 2-{[(4-Fluorophenyl)methyl]oxy}-N-4-isoxazolyl-5-(1-methyl-1H-pyrazol-4-yl)benzamide]
[2]; [4]
  IC50: ≤ 0.1 µM
[3]; [5]
  IC50: ≤ 20 µM

## O=C(Nc1cccnc1)c1cc(CCCN2CCOCC2)ccc1OCc1ccc(F)cc1 [Example 136, 2-{[(4-Fluorophenyl)methyl]oxy}-5-[3-(4-morpholinyl)propyl]-N-3-pyridinylbenzamide]
[2]; [4]
  IC50: ≤ 0.1 µM
[2]; [6]
  IC50: 0.1 µM
[3]; [5]
  IC50: ≤ 20 µM
[3]; [7]
  IC50: 0.398 µM
